# Patent US20180009797A1, “AZA-ARYL 1H-PYRAZOL-1-YL BENZENE SULFONAMIDES” (ChemoCentryx, Inc., priority 2016, published 2018)
# Target: T1, CCR(9) (Homo sapiens, UniProt P51686)
# T1 construct: CCR(9)-expressing cells such as T cell line MOLT-4 cells; host or cells: MOLT-4 T cell line
# T1 sequence (P51686 1-369): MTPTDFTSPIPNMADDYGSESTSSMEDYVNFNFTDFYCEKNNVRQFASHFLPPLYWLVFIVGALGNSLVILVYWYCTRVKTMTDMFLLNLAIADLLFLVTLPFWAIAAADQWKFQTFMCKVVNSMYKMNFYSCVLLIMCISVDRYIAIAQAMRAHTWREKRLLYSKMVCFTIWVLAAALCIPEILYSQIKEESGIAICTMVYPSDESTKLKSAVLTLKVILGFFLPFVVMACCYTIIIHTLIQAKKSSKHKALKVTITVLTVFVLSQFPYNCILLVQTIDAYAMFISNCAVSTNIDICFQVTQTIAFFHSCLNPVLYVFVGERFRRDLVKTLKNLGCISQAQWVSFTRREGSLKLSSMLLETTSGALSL
# Assay: serum chemotaxis (serum migration) assay, MOLT-4 cells in human serum, TECK
# Type: cell-based
# Settings: read-out: A2
# Experimental: In vitro cell chemotaxis assays can be performed (but are not limited to this format) using the 96-well microchamber (called ChemoTX™). The ChemoTX™ system is well known to those skilled in the art as a type of chemotactic/cell migration instrument. In this assay, CCR(9)-expressing cells (such as MOLT-4) are first incubated with a compound of interest, such as a possible CCR(9) antagonist at increasing concentrations. Typically, fifty thousand cells per well are used, but the amount can range from 10^3-10^6 cells per well. The chemokine ligand (for example, CCR(9) ligand TECK, typically at 50 nM (but can range from 5-100 nM)), is placed at the lower chamber and the migration apparatus is assembled. Twenty microliters of test compound-treated cells are then placed onto the membrane. Migration is allowed to take place at 37° C. for a period of time, typically 2.5 hours for CCR(9). At the end of the incubation, the number of cells that migrated across the membrane into the lower chamber is then quantified. The efficacy of a compound as an inhibitor of chemokine-mediated cell migration can be calculated as an IC50 (the concentration needed to reduce cell migration by 50%) or IC90 (for 90% inhibition).
# MOLT-4 cells were obtained from the American Type Culture Collection (Manassas, Va.) and cultured in RPMI tissue culture medium supplemented with 10% fetal calf serum (FCS) in a humidified 5% CO2 incubator at 37° C. Recombinant human chemokine proteins TECK was obtained from R&D Systems (Minneapolis, Minn.). ChemoTX® chemotaxis microchambers were purchased from Neuro Probe (Gaithersburg, Md.). CyQUANT® cell proliferation kits were purchased from Molecular Probes (Eugene, Oreg.). Calcium indicator dye Fluo-4 AM was purchased from Molecular Devices (Mountain View, Calif.).
# A serum chemotaxis assay was used to determine the efficacy of potential receptor antagonists at blocking the migration mediated through chemokine receptors, such as CCR(9). This assay was performed using the ChemoTX® microchamber system with a 5-μm pore-sized polycarbonate membrane. MOLT-4 cells were collected by centrifugation at 400×g at room temperature, then suspended at 50 million/ml in human serum, containing 50 mM HEPES (final pH of 7.2). The compound being tested or an equivalent volume of its solvent (DMSO) was then added to the cell/serum mixture at a final DMSO concentration of 0.125% (v/v), and this mixture was then incubated together at 37° C. for one hour. Separately, recombinant human TECK was diluted with chemotaxis buffer (HBSS+0.1% BSA), generally spanning a range from 0.1 nM to 500 nM, after which 29 μl of diluted chemokine was placed in the lower wells of the ChemoTX® plate. The 5-μm (pore size) polycarbonate membrane was placed onto the plate, and 20 μL of the cell/compound mixture was transferred onto each well of the membrane. The plates were incubated at 37° C. for 90 minutes, after which the polycarbonate membranes were removed and 5 μl of the DNA-intercalating agent CyQUANT (Invitrogen, Carlsbad, Calif.) was added to the lower wells. The amount of fluorescence, corresponding to the number of migrated cells, was measured using a Spectrafluor Plus plate reader (TECAN, San Jose, Calif.).
# The A2 values were calculated from the following equation, comparing the efficacy of the test compound with that of the DMSO-only control at equi-active chemokine levels:
# Log(A2)=log [drug(M)]−log [(A′/A)−1]
# where A reflects the potency of the agonist in the absence of antagonist and […] reflects the potency of the agonist in the presence of antagonist at a given concentration of drug ([drug(M)]).
row,EC50,Compound
1,< 500 nM,Cc1cc(NS(=O)(=O)c2ccc(C(C)(C)C)c(F)c2)n(-c2ccc(Br)c3ncccc23)n1
2,501 to 2500 nM,CC(C)c1ccc(S(=O)(=O)Nc2cc(C(F)(F)F)nn2-c2cccc3cnccc23)cc1
3,501 to 2500 nM,Cc1cc(NS(=O)(=O)c2ccc(C(C)(C)C)cc2)n(-c2cccc3c2ccc[n+]3[O-])n1
4,501 to 2500 nM,Cc1cc(NS(=O)(=O)c2ccc(C(C)(C)C)cc2)n(-c2cccc3c(N)nccc23)n1
5,< 500 nM,Cc1ccc2c(-n3nc(C)cc3NS(=O)(=O)c3ccc(C(C)(C)C)cc3)cccc2n1
6,501 to 2500 nM,CC(C)(C)c1ccc(S(=O)(=O)Nc2cc(C(F)(F)F)nn2-c2cccc3ncccc23)cc1
7,501 to 2500 nM,Cc1cc(NS(=O)(=O)c2ccc(OC(C)C)c(F)c2)n(-c2cccc3ncccc23)n1
8,501 to 2500 nM,CC(C)c1ccc(S(=O)(=O)Nc2cc(C(F)F)nn2-c2cccc3ncccc23)cc1
9,501 to 2500 nM,Cc1cc(NS(=O)(=O)c2ccc(OC(C)C)cc2)n(-c2cccc3cnccc23)n1
10,501 to 2500 nM,Cc1cc(NS(=O)(=O)c2ccc(C(C)(C)C)cc2)n(-c2ccnc3c(F)cccc23)n1
11,501 to 2500 nM,Cc1cc(NS(=O)(=O)c2ccc(C(C)(C)C)cc2)n(-c2cnc(N)c3ccccc23)n1
12,< 500 nM,Cc1cc(NS(=O)(=O)c2cc(F)c(C(C)(C)C)c(F)c2)n(-c2cccc3ncccc23)n1
13,501 to 2500 nM,Cc1cc(NS(=O)(=O)c2ccc(C(C)(C)C)cc2)n(-c2cncc3ccccc23)n1
14,< 500 nM,COc1ccc(-n2nc(C)cc2NS(=O)(=O)c2ccc(C(C)(C)C)c(F)c2)c2cccnc12
15,> 2500 nM,Cc1cc(NS(=O)(=O)c2ccc(C(C)(C)C)cc2)n(-c2ncc(Cl)c3ccccc23)n1
16,501 to 2500 nM,Cc1cc(NS(=O)(=O)c2ccc(C(C)(C)C)cc2)n(-c2cc(N)nc3ccccc23)n1
17,501 to 2500 nM,CCC(C)(C)c1ccc(S(=O)(=O)Nc2cc(C)nn2-c2cccc3ncccc23)cc1
18,501 to 2500 nM,CC(C)(C)c1ccc(S(=O)(=O)Nc2cc(C#N)nn2-c2cccc3ncccc23)cc1
19,< 500 nM,Cc1cc(NS(=O)(=O)c2ccc(C(C)(C)C)cc2)n(-c2ccc(Cl)c3ncccc23)n1
20,< 500 nM,CC(C)(C)c1ccc(S(=O)(=O)Nc2cc(C(F)F)nn2-c2cccc3ncccc23)cc1
21,> 2500 nM,CC(C)Oc1ccc(S(=O)(=O)Nc2cc(C(F)(F)F)nn2-c2cccc3ncccc23)cc1
22,501 to 2500 nM,COc1cnc(-n2nc(C)cc2NS(=O)(=O)c2ccc(C(C)(C)C)cc2)c2ccccc12

# The next lines start with the compound.
row,Compound,EC50
1,Cc1cc(NS(=O)(=O)c2ccc(C(C)(C)C)c(Cl)c2)n(-c2cccc3ncccc23)n1,501 to 2500 nM
2,CCOc1ccc(-n2nc(C)cc2NS(=O)(=O)c2ccc(C(C)(C)C)cc2)c2cccnc12,501 to 2500 nM
3,CC(C)Oc1ccc(S(=O)(=O)Nc2cc(C(F)F)nn2-c2cccc3ncccc23)cc1,< 500 nM
4,CC(C)Oc1ccc(S(=O)(=O)Nc2cc(C(F)(F)F)nn2-c2cccc3cnccc23)cc1,501 to 2500 nM
5,Cc1cc(NS(=O)(=O)c2ccc(C(C)C)cc2)n(-c2cccc3cnccc23)n1,501 to 2500 nM
6,Cc1cc(NS(=O)(=O)c2ccc(C(C)(C)C)c(F)c2)n(-c2ccc(C#N)c3ncccc23)n1,< 500 nM
7,Cc1cc(NS(=O)(=O)c2ccc(C(C)(C)C)c(F)c2)n(-c2ccc(N)c3ncccc23)n1,501 to 2500 nM
8,Cc1cc(NS(=O)(=O)c2ccc(C(C)(C)C)cc2)n(-c2cccc3nc(N)ccc23)n1,< 500 nM
9,Cc1cc(NS(=O)(=O)c2ccc(C(C)(C)C)cc2)n(-c2n[nH]c(=O)c3ccccc23)n1,501 to 2500 nM
10,Cc1cc(NS(=O)(=O)c2ccc(C(C)(C)C)cc2)n(-c2cccc3c[n+]([O-])ccc23)n1,> 2500 nM
11,Cc1cc(NS(=O)(=O)c2ccc(C(C)(C)C)cc2)n(-c2cnnc3ccccc23)n1,501 to 2500 nM
12,Cc1cc(-n2nc(C)cc2NS(=O)(=O)c2ccc(C(C)(C)C)cc2)c2cccnc2c1,501 to 2500 nM
13,Cc1cc(NS(=O)(=O)c2ccc(OCC(C)C)cc2)n(-c2cccc3ncccc23)n1,> 2500 nM
14,Cc1cc(NS(=O)(=O)c2ccc(C(C)(C)C)cc2)n(-c2ccc(N)c3ncccc23)n1,< 500 nM
15,Cc1cc(NS(=O)(=O)c2ccc(C(C)(C)C)cc2)n(-c2ccnc3cc(F)ccc23)n1,501 to 2500 nM
16,CC(C)Oc1ccc(S(=O)(=O)Nc2cc(CF)nn2-c2cccc3ncccc23)cc1,501 to 2500 nM
17,Cc1cc(NS(=O)(=O)c2ccc(C(C)C)cc2)n(-c2cccc3ncccc23)n1,501 to 2500 nM
18,Cc1cc(NS(=O)(=O)c2ccc(C(C)(C)C)c(F)c2)n(-c2cccc3ncccc23)n1,< 500 nM
19,CC(C)(C)c1ccc(S(=O)(=O)Nc2cc(CF)nn2-c2cccc3ncccc23)cc1F,< 500 nM
20,Cc1cc(NS(=O)(=O)c2ccc(C(C)(C)C)cc2F)n(-c2cccc3ncccc23)n1,501 to 2500 nM

row,Compound,EC50
1,Cc1cc(NS(=O)(=O)c2ccc(C(C)(C)C)cc2)n(-c2nncc3ccccc23)n1,501 to 2500 nM
2,Cc1cc(NS(=O)(=O)c2ccc(C(C)(C)C)cc2)n(-c2nccc3ncccc23)n1,501 to 2500 nM
3,CC(C)(C)c1ccc(S(=O)(=O)Nc2cc(C(F)F)nn2-c2cccc3ncccc23)cc1F,501 to 2500 nM
4,COc1ccc(-n2nc(C)cc2NS(=O)(=O)c2ccc(C(C)(C)C)cc2)c2cccnc12,< 500 nM
5,Cc1cc(-n2nc(C)cc2NS(=O)(=O)c2ccc(C(C)(C)C)cc2)c2ccccc2n1,501 to 2500 nM
6,Cc1cc(NS(=O)(=O)c2ccc(C(C)(C)C)cc2)n(-c2ccnc3ccccc23)n1,501 to 2500 nM
7,Cc1cc(NS(=O)(=O)c2ccc(OC(F)(F)F)cc2)n(-c2cccc3ncccc23)n1,501 to 2500 nM
8,CC(C)(C)c1ccc(S(=O)(=O)Nc2cc(CF)nn2-c2cccc3ncccc23)cc1,< 500 nM
9,Cc1cc(NS(=O)(=O)c2ccc(C(C)(C)C)cc2)n(-c2ccc(F)c3ncccc23)n1,501 to 2500 nM
10,Cc1cc(NS(=O)(=O)c2ccc(OC(C)C)cc2)n(-c2cccc3ncccc23)n1,501 to 2500 nM
11,CC(C)(C)c1ccc(S(=O)(=O)Nc2ccnn2-c2cccc3ncccc23)cc1,> 2500 nM
12,Cc1cc(NS(=O)(=O)c2ccc(C(C)(C)C)c(F)c2)n(-c2cccc3nc(N)ccc23)n1,< 500 nM
13,COCc1cc(NS(=O)(=O)c2ccc(C(C)(C)C)cc2)n(-c2cccc3ncccc23)n1,< 500 nM
14,CC(C)c1ccc(S(=O)(=O)Nc2cc(C(F)(F)F)nn2-c2cccc3ncccc23)cc1,501 to 2500 nM
15,Cc1cc(NS(=O)(=O)c2ccc(C(C)(C)C)cc2)n(-c2cccc3ncccc23)n1,< 500 nM
16,Cc1cc(NS(=O)(=O)c2ccc(C(C)(C)C)cc2)n(-c2ccc(C)c3ncccc23)n1,501 to 2500 nM
17,Cc1cc(NS(=O)(=O)c2ccc(C(C)(C)C)cc2)n(-c2nccc3ccccc23)n1,501 to 2500 nM
18,Cc1cc(NS(=O)(=O)c2ccc(C(C)(C)C)cc2)n(-c2ccc(Br)c3ncccc23)n1,501 to 2500 nM
19,Cc1cc(NS(=O)(=O)c2ccc(C(C)(C)C)cc2)n(-c2cccc3cnccc23)n1,501 to 2500 nM
20,Cc1cc(NS(=O)(=O)c2ccc(C(C)(C)C)cc2)n(-c2ccc(C#N)c3ncccc23)n1,501 to 2500 nM
